“And” between values parts separate entries of the source, which are not always exact repeats. Equal values may be shown once.
Experiments:
[1] = target: EGFR Human RTK Kinase (Homo sapiens, UniProt P00533); assay: biochemical; conditions: read-out: EGFR Human RTK Kinase Enzyme activity: % inhibition @10 µM
Protocol: Relative light units (RLUs) of the CALUX assays were analysed as follows. For agonist assays,
background values (exposure to DMSO only) were subtracted, and the maximum activity of the
resulting in expression of the data as “percentage of maximum reference response”. Graphs were
generated using the statistical software package GraphPad Prism V5.03. Using these graphs, lowest
effect concentrations (LOECs) and PC50 concentrations were determined; LOEC is defined as the
maximum reference compound activity for agonist assays, and 20% of the maximum reference
compound activity for antagonist assays. The PC50 is defined as the concentration where the activity
of the sample equals 50% of the maximum activity of the assay’s reference compound.
the test compound was divided by the amount of estrogens and androgens produced by the solvent
control-exposed cells. A sample was considered ‘active’ if it decreased the hormone production 0.8-
targets. The list of targets included the original panel of 44 targets (including receptors, ion channels, […]

[2] = target: T1, MAO-A (Rattus norvegicus, UniProt P21396); assay: Pharmacology profiling: MAO-A (antagonist RL); assay type: binding; conditions: for inhibition at 10 µM: read-out: MAO-A (antagonist RL): % inhibition @10 µM
T1 sequence (P21396 1-526): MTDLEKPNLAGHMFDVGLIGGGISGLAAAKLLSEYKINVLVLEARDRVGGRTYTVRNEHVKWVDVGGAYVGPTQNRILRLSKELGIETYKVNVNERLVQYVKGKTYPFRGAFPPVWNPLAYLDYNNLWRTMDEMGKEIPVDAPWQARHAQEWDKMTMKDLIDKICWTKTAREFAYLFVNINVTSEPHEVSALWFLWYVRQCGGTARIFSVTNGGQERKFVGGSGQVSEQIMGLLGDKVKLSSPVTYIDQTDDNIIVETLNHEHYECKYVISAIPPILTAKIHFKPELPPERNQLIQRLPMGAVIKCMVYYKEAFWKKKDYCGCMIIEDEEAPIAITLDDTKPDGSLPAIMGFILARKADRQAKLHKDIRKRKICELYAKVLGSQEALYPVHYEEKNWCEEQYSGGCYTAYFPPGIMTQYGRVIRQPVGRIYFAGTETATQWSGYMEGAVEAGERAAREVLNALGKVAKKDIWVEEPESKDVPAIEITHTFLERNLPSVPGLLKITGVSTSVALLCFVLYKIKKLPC
Excerpt: (§10) targets. The list of targets included the original panel of 44 targets (including receptors, ion channels,
(§11) transporters and enzymes) recommended by 4 major pharmaceutical companies as significant
(§12) reasoned to link to pathological effects. Results showing an inhibition or stimulation higher than 50%
(§13) are considered to represent significant effects (i.e. a “hit”).
(§14) and 50% are indicative of weak to moderate effects and results showing an inhibition (or stimulation)
(§15) around the control level. For several targets, additional concentration effect assays were conducted to
(§16) determine the potency (IC50). The concentrations tested (in duplicate) ranged between 30 nM and 100

[3] = target: 5-HT2A (h) (Homo sapiens, UniProt P28223); assay: biochemical; assay type: binding; conditions: read-out: 5-HT2A (h) (agonist RL): % inhibition @10 µM
Excerpt: as §10, §11, §12, §13, §14, §15, §16

[4] = target: Adenosine A2A (h) (Homo sapiens, UniProt P29274); assay: Pharmacology profiling: Adenosine A2A (h) (agonist RL); assay type: binding; conditions: for inhibition at 10 µM: read-out: Adenosine A2A (h) (agonist RL): % inhibition @10 µM
Excerpt: (§1) Cosmetics Europe’s Systemic Toxicity Taskforce (SysTox-TF) has extended the list of targets in an in vitro screen originally described by [Bowes et al. (2012)] to assess the effects of cosmetic chemicals on target molecules. The approach was based on the knowledge that various targets of pharmacological interest have been linked to human adverse drug reactions, and that screening of these has helped the pharma industry in identifying drug candidates with acceptable human safety profiles ([Bowes et al., 2012]; [Scott et al., 2022]). The methods used by the pharma industry were adapted for use in cosmetic chemical NGRA. A final list of 83 target assays were considered suitable for cosmetic chemical safety testing (see Supplementary Materials S1.7). The targets were receptors, ion channels, transporters and enzymes identified by the pharma industry as linked to human adverse drug reactions, supplemented by additional targets that have been reasoned to be linked to systemic toxicities of chemicals in animals. Chemicals that are flagged for a target are tested in follow-up dose-response assays to establish potency of the interaction. […]. [Valentin et al., 2018]; [Dodson et al., 2021]). […].
(§2) assay’s reference compound was set to 100%. For antagonist assays, the basal signal (exposure to fixed concentration of agonist only) was set to 100%. Activity of the samples was scaled accordingly, […]
(§3) Using these graphs, lowest […]
(§4) compound activity for antagonist assays.
(§5) S1.7. Pharmacology profiling assays […]
(§6) reasoned to link to pathological effects. […]
(§7) around the control level. […]
(§8) determine the potency (IC50).
(§9) Supplementary Table S4 Pharmacology profiling assay panel. […]

[5] = target: T2, COX2 (h) (Homo sapiens, UniProt P35354); assay: Pharmacology profiling: COX2 (h); assay type: biochemical; conditions: for inhibition at 10 µM: read-out: COX2 (h): % inhibition @10 µM
T2 sequence (P35354 18-604): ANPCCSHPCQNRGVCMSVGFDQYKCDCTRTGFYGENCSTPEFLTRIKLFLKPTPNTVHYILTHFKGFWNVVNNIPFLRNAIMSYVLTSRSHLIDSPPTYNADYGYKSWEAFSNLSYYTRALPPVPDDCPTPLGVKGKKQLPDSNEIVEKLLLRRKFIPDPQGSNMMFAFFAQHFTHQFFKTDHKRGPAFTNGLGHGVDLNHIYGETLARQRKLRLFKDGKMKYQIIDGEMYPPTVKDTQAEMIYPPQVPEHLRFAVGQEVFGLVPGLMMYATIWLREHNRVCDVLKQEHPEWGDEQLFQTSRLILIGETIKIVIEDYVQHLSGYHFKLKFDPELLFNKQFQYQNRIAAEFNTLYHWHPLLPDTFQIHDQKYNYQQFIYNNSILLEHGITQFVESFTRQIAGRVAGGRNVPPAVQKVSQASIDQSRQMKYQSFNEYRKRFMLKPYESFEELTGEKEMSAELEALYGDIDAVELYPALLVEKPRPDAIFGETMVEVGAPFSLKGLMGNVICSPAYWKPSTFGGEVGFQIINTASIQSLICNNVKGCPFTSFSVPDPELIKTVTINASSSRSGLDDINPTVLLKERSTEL
Excerpt: as §1, §2, §3, §4, §5, §6, §7, §8, §9

[6] = assay type: in vitro ADME
Excerpt: Additional information was required to determine whether an adjustment factor was needed to account for a difference in the absorption of daidzein after topical application and whether the absorption was impacted by the use of the intended (body lotion base) formulation. […]. […] […]. The results of this study are described in detail by [Géniès et al. (2024)] and are summarized here.

[7] = target: Estrogen ERα (h) (Homo sapiens, UniProt P03372); conditions: pharmacology profiling; LOEC = 10% of maximum reference compound activity
[8] = target: T3, ERα receptor (Homo sapiens, UniProt P03372)
[9] = target: T3, ERα receptor; remark: listed apart in the source
Protocol: using the U2-OS based CALUX cytotox bioassay. The cytotoxicity of each test chemical was assessed using the U2-OS based cytotoxicity CALUX bioassay. Concentrations causing >20% reduction of luminescence were considered cytotoxic.
cytotoxicity (relative induction in the cytotoxicity CALUX bioassay > 80%) were used for final
evaluation of analysis results.
induction in the cytotox CALUX bioassay > 80%) were used for final evaluation of analysis results.
All analysis results were expressed in molar (M) final in well.
For determination of the (anti-)ERα, (anti-)AR and (anti-)TRβ CALUX activities, CALUX cells were
seeded in assay medium. Following exposure of the CALUX cells to serial dilutions of the
compounds in triplicate for 24 h, the induction of luciferase production was quantified by measuring
luminescence following addition of the substrate luciferin. For antagonist assays, a fixed
concentration of assay agonist was present in each well, to generate a basal signal. On each plate, a
complete calibration curve for each respective bioassay was also analysed using the relevant reference
compounds. For the analyses in the presence of rat liver S9, 0.03% (v/v) of PB/BNF induced rat liver […]
Relative light units (RLUs) of the CALUX assays were analysed as follows. […]
effect concentrations (LOECs) and PC50 concentrations were determined; LOEC is defined as the […]

[10] = system: Thyroid pathway; set-up: method as in ToxCast; conditions: ref ToxCast, cited from earlier work; for Thyroid pathway: Reporter protein Agonist, Call: key: Pos = positive result; Neg = negative result; Inc = uncertain/inconclusive result; for Thyroid pathway: Reporter protein Antagonist, Call: key: Pos = positive result; Neg = negative result; Inc = uncertain/inconclusive result; for Thyroid pathway: mRNA induction, Call: key: Pos = positive result; Neg = negative result; Inc = uncertain/inconclusive result
[11] = system: TSHR; set-up: method as in ToxCast; conditions: ref ToxCast; cited from earlier work; note: key: Pos = positive result; Neg = negative result; Inc = uncertain/inconclusive result
[12] = system: Thyroid peroxidase; set-up: method as in ToxCast; conditions: ref ToxCast, cited from earlier work
[13] = ref SCCS 2022; cited from earlier work
[14] = system: mice; conditions: oral administration; ref SCCS 2022; cited from earlier work

O=c1c(-c2ccc(O)cc2)coc2cc(O)ccc12 [Daidzein, DAIDZEIN]
inhibition at 10 µM [1]: 17.8% | IC50 [2]: 9.18 µM | inhibition at 10 µM [2]: 49.6% | inhibition at 10 µM [3]: 38.9% | inhibition at 10 µM [4]: 20.5% | inhibition at 10 µM [5]: 21.6% | Metabolized in the skin after 24 h ([6]; human, 24 h): 55% | ERα LOEC (binding to receptor) [7]: 35 nM and 35.2 nM | LOEC, ERα CALUX assay [8]: 110 ± 18 nM | ERα receptor LOEC, +S9 ([8]; +S9 (rat liver)): −7.0 Log M | LOEC, ERα + S9 ([8]; CALUX ERα, with rat liver S9): 100 ± 0.0 nM and 100 ± 0 nM and 100 nM | LOEC, ERα − S9 ([8]; CALUX ERα, without S9): 110 nM | NOEC (in vitro PoD) = ERα CALUX LOEC divided by 3 ([8]; estimated from LOEC + S9): 33 nM | ERα receptor LOEC, −S9 ([8]; −S9): −6.9 Log M | Anti-ERα antiestrogen LOEC, +S9 ([9]; +S9 (rat liver)): >−5 Log M | Anti-ERα antiestrogen LOEC, −S9 ([9]; −S9): >−5 Log M | Thyroid pathway: Reporter protein Agonist, Call [10]: Neg | Thyroid pathway: Reporter protein Antagonist, Call [10]: Neg | Thyroid pathway: mRNA induction, Call [10]: Neg | Thyroid pathway: Regulation of transcription factor activity (TSHR), Call [11]: Neg | Thyroid pathway: Thyroid peroxidase, Call [12]: Pos | AC50 ([12]; read-out: Thyroid pathway: Thyroid peroxidase, AC50): 10.2 µM

O=c1c(-c2ccc(O)cc2)coc2cc(O)cc(O)c12 [Genistein, 5,7-DIHYDROXY-3-(4-HYDROXYPHENYL)-4-BENZOPYRONE]
inhibition at 10 µM [2]: 86% | IC50 [4]: 10 µM | inhibition at 10 µM [4]: 52.2% | IC50 [5]: 13.6 µM | inhibition at 10 µM [5]: 53.8% | Amount of parent chemical entering the systemic circulation ([6]; 3 nmol/cm^2 in the body lotion formulation): 7.2 % of the applied dose | AC50 ([10]; read-out: Thyroid pathway: Reporter protein Antagonist, AC50): 13.1 µM | Thyroid pathway: Regulation of transcription factor activity (TSHR), Call [11]: Neg | Thyroid pathway: Thyroid peroxidase, Call [12]: Pos | In vitro Comet assay result [13]: positive, and four were negative | In vivo DNA damage/Comet assay result [14]: Negative in mice after oral administration
